In the test the target is unphosphorylated-BTK kinase domain (UP-BTK), GST-tagged human BTK (389-659aa) (Homo sapiens (Human), UniProt Q06187). Description: BTK kinase Lanthascreen binding assay. The conditions noted are these: unphosphorylated-BTK kinase domain, 50 nM Tracer 236, 60 minutes, pIC50 = negative log of the IC50 in molar; for IC50: read-out: BTK_I_binding pIC50 (converted). The gist of the method:
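Values are pIC50, i.e. negative log of IC50 in molar, derived from concentration–response fitting. Each compound competes with a fluorescently labelled tracer for the unphosphorylated kinase domain.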
(In general: In TR-FRET formats the signal depends on donor and acceptor labels being close together.)

Sequence of unphosphorylated-BTK kinase domain (UP-BTK), GST-tagged human BTK (389-659aa) (Q06187 389-659): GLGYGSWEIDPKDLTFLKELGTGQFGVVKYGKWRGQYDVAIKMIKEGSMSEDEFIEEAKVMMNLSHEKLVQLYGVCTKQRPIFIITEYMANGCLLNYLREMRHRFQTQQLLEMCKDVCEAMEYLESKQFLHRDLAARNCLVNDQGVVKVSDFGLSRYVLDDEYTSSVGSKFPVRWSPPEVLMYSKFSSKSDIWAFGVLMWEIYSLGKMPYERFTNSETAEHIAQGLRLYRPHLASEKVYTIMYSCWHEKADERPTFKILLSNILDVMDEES

For `[2H]c1c([2H])c([2H])c(Oc2ccc(N3C(=O)Nc4c(C(=O)N[C@@H]5CCCN(C(=O)C=C)C5)sc5nccc3c45)c(C)c2)c([2H])c1[2H]` [Example 375, (R)—N-(1-Acryloylpiperidin-3-yl)-5-(2-methyl-4-(2,3,4,5,6-pentadeuteriophenoxy)phenyl)-4-oxo-4,5-dihydro-3H-1-thia-3,5,8-triazaacenaphthylene-2-carboxamide], the IC50 is 12.6 nM.
Same read-out and setting: then `[2H]c1c([2H])c([2H])c(Oc2ccc(N3C(=O)Nc4c(C(=O)N[C@@H]5CCN(C(=O)C=C)C5)sc5nccc3c45)c(C)c2)c([2H])c1[2H]` [Example 376, (R)—N-(1-Acryloylpyrrolidin-3-yl)-5-(2-methyl-4-(2,3,4,5,6-pentadeuteriophenoxy)phenyl)-4-oxo-4,5-dihydro-3H-1-thia-3,5,8-triazaacenaphthylene-2-carboxamide], with 15.8 nM.
With `CNC/C=C/C(=O)N1CC[C@@H](NC(=O)c2sc3nccc4c3c2NC(=O)N4c2ccc(Oc3ccccc3)cc2C)C1` [Example 377, (R,E)-5-(2-Methyl-4-phenoxyphenyl)-N-(1-(4-(methylamino)but-2-enoyl)pyrrolidin-3-yl)-4-oxo-4,5-dihydro-3H-1-thia-3,5,8-triazaacenaphthylene-2-carboxamide], the “BTK_I_binding pIC50” value is 7.5.
As to `[2H]c1c([2H])c([2H])c(Oc2ccc(N3C(=O)Nc4c(C(=O)N[C@@H]5CCCN(C(=O)/C(C#N)=C/C6CC6)C5)sc5nccc3c45)c(C)c2)c([2H])c1[2H]` [Example 378, (R,E)-N-(1-(2-Cyano-3-cyclopropylacryloyl)piperidin-3-yl)-5-(2-methyl-4-(2,3,4,5,6-pentadeuteriophenoxy)phenyl)-4-oxo-4,5-dihydro-3H-1-thia-3,5,8-triazaacenaphthylene-2-carboxamide], the IC50 is 31.6 nM.
Still for that read-out and setting: to `[2H]c1c([2H])c([2H])c(Oc2ccc(N3C(=O)Nc4c(C(=O)N[C@@H]5CCCN(C#N)C5)sc5nccc3c45)c(C)c2)c([2H])c1[2H]` [Example 379, (R)—N-(1-Cyanopiperidin-3-yl)-5-(2-methyl-4-(2,3,4,5,6-pentadeuteriophenoxy)phenyl)-4-oxo-4,5-dihydro-3H-1-thia-3,5,8-triazaacenaphthylene-2-carboxamide] belongs 31.6 nM.
On to `[2H]c1c([2H])c([2H])c(Oc2ccc(N3C(=O)Nc4c(C(=O)N[C@@H]5CCCN(C([2H])([2H])[2H])C5)sc5nccc3c45)c(C)c2)c([2H])c1[2H]` [Example 380, (R)-5-(2-Methyl-4-(2,3,4,5,6-pentadeuteriophenoxy)phenyl)-N-(1-(trideuteriomethyl)piperidin-3-yl)-4-oxo-4,5-dihydro-3H-1-thia-3,5,8-triazaacenaphthylene-2-carboxamide], for which the IC50 was 158 nM.
With `[2H]c1c([2H])c([2H])c(Oc2ccc(N3C(=O)Nc4c(C(=O)N[C@@H]5CCCN(C)C5)sc5nccc3c45)c(C)c2)c([2H])c1[2H]` [Example 381, (R)-5-(2-Methyl-4-(2,3,4,5,6-pentadeuteriophenoxy)phenyl)-N-(1-methylpiperidin-3-yl)-4-oxo-4,5-dihydro-3H-1-thia-3,5,8-triazaacenaphthylene-2-carboxamide], the IC50 is 79.4 nM.
Regarding `Cc1cc(Oc2ccccc2)ccc1N1C(=O)Nc2c(C(=O)N[C@@H]3CCN(C(=O)/C=C/CN)C3)sc3nccc1c23` [Example 382, (R,E)-N-(1-(4-Aminobut-2-enoyl)pyrrolidin-3-yl)-5-(2-methyl-4-phenoxyphenyl)-4-oxo-4,5-dihydro-3H-1-thia-3,5,8-triazaacenaphthylene-2-carboxamide], the “BTK_I_binding pIC50” value was 7.3.
Still for that read-out and setting: then `Cc1cc(Oc2ccccc2)ccc1N1C(=O)Nc2c(C(=O)N[C@@H]3CCCN(C(=O)/C=C/CNS(C)(=O)=O)C3)sc3nccc1c23` [Example 383, (R,E)-5-(2-Methyl-4-phenoxyphenyl)-N-(1-(4-(methylsulfonamido)but-2-enoyl)piperidin-3-yl)-4-oxo-4,5-dihydro-3H-1-thia-3,5,8-triazaacenaphthylene-2-carboxamide], with 7.2.
